Source: patent publication US20230365554A1, “SUBSTITUTED PYRROLO-PYRIDINONE DERIVATIVES AND THERAPEUTIC USES THEREOF” (The Broad Institute, Inc., priority 2020, published 2023)

Legend:
human CSNK1D = human CSNK1D (Homo sapiens (Human), UniProt P48730); experiment: CSNK1D assay (ADP-Glo, 1 μM ATP); format: biochemical; conditions: median, Table 2, read-out: CSNK1D IC50 [mol/l] (median)
Procedure: CSNK1D-inhibitory activity of compounds of the present invention in presence of 1 μM adenosine-tri-phosphate (ATP) was quantified employing the CSNK1D assay as described in the following paragraphs. In essence, the enzyme activity is measured by quantification of the adenosine-di-phosphate (ADP), which is generated as a co-product of the enzyme reaction, via the “ADP-Glo™ Kinase Assay” kit from the company Promega. This detection system works as follows: In a first step the ATP not consumed in the kinase reaction is quantitatively converted to cAMP employing an adenylate cyclase (“ADP-Glo-reagent”), then the adenylate cyclase is stopped and the ADP generated in the kinase reaction converted to ATP which generates in a luciferase-based reaction a glow-luminescence signal (“Kinase Detection Reagent”).
(§1) Recombinant fusion protein of N-terminal Glutathion-S-Transferase (GST) and full-length human CSNK1D, expressed by baculovirus infected insect cells and purified via Glutathion affinity chromatography, was purchased from Life Technologies (product no. PV3665) and used as enzyme. As substrate for the kinase reaction the biotinylated peptide Btn-Ahx-SGSEGDSESGEEEG (C-terminus in amide form) was used which can be purchased e.g. from the company Biosyntan (Berlin-Buch, Germany).
For the assay 50 nl of a 100 fold concentrated solution of the test compound in DMSO was pipetted into a white 1536-well microtiter plate (Greiner Bio-One, Frickenhausen, Germany), 2 μL of a solution of CSNK1D in aqueous assay buffer [50 mM HEPES pH 7.5, 10% (v/v) glycerol, 10 mM MgCl2, 50 mM NaCl, 1 mM dithiothreitol, 0.01% (w/v) bovine serum albumin, 0.01% (v/v) Triton X-100] were added and the mixture was incubated for 15 min at 22° C. to allow pre-binding of the test compounds to the enzyme before the start of the kinase reaction. Then the kinase reaction was started by the addition of 3 μL of a solution of ATP (1.67 μM=>final conc. in the 5 μL assay volume is 1 μM) and peptide substrate (50 μM=>final conc. in the 5 μL assay volume is 30 μM) in assay buffer and the resulting mixture was incubated for a reaction time of 30 min at 22° C. The concentration of CSNK1D was adjusted depending of the activity of the enzyme lot and was chosen appropriate to have the assay in the linear range, a typical concentration is about 0.5 ng/μL. The reaction was stopped by the addition of 2.5 μL of “ADP-Glo-reagent” (1:1.5 fold diluted with water) and the resulting mixture was incubated at 22° C. for 1 h to convert the ATP not consumed in the kinase reaction completely […]. Subsequently 2.5 μL of the “kinase detection reagent” (1.2 fold more concentrated than recommended by the producer) were added, the resulting mixture was incubated at 22° C. for 1 h and then the luminescence measured with a suitable measurement instrument (e.g. Viewlux™ from Perkin-Elmer). The amount of emitted light was taken as a measure for the amount of ADP generated and thereby for the activity of the CSNK1D.
(§2) The data were normalised (enzyme reaction without inhibitor=0% inhibition, all other assay components but no enzyme=100% inhibition).

human CSNK1A1 = human CSNK1A1 (Homo sapiens (Human), UniProt P48729); experiment: CSNK1A1 Assay 2 (ADP-Glo, 1 μM ATP); format: biochemical; conditions: median, Table 2, read-out: CSNK1A1 Assay 2 IC50 [mol/l] (median)
Chain of human CSNK1A1 (P48729 whole entry): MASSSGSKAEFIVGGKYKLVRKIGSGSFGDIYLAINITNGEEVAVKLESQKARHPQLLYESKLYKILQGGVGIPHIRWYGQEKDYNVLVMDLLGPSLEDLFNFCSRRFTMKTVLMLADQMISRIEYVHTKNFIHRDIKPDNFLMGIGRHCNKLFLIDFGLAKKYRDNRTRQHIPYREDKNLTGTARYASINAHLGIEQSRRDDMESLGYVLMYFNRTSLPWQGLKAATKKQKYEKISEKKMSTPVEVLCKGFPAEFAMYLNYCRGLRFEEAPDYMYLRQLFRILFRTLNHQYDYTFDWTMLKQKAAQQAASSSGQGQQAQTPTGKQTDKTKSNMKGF
Procedure: CSNK1A1-inhibitory activity of compounds of the present invention in presence of 1 μM adenosine-tri-phosphate (ATP) was quantified employing the CSNK1A1 assay as described in the following paragraphs. In essence, the enzyme activity is measured by quantification of the adenosine-di-phosphate (ADP), which is generated as a co-product of the enzyme reaction, via the “ADP-Glo™ Kinase Assay” kit from the company Promega. This detection system works as follows: In a first step the ATP not consumed in the kinase reaction is quantitatively converted to cAMP employing an adenylate cyclase (“ADP-Glo-reagent”), then the adenylate cyclase is stopped and the ADP generated in the kinase reaction converted to ATP which generates in a luciferase-based reaction a glow-luminescence signal (“Kinase Detection Reagent”).
as §1, with “CSNK1A1,” for “CSNK1D,”, “PV4174)” for “PV3665)”, “biotin-Ahx-KRRRAL-pS-VASLPGL” for “Btn-Ahx-SGSEGDSESGEEEG”
For the assay 50 nl of a 100 fold concentrated solution of the test compound in DMSO was pipetted into a white 1536-well microtiter plate (Greiner Bio-One, Frickenhausen, Germany), 2 μL of a solution of CSNK1A1 in aqueous assay buffer [50 mM HEPES pH 7.5, 10% (v/v) glycerol, 10 mM MgCl2, 50 mM NaCl, 1 mM dithiothreitol, 0.01% (w/v) bovine serum albumin, 0.01% (v/v) Triton X-100] were added and the mixture was incubated for 15 min at 22° C. to allow pre-binding of the test compounds to the enzyme before the start of the kinase reaction. Then the kinase reaction was started by the addition of 3 μL of a solution of ATP (1.67 μM=>final conc. in the 5 μL assay volume is 1 μM) and peptide substrate (50 μM=>final conc. in the 5 μL assay volume is 30 μM) in assay buffer and the resulting mixture was incubated for a reaction time of 30 min at 22° C. The concentration of CSNK1A1 was adjusted depending of the activity of the enzyme lot and was chosen appropriate to have the assay in the linear range, a typical concentrations are about 0.0375 ng/μL. The reaction was stopped by the addition of 2.5 μL of “ADP-Glo-reagent” (1:1.5 fold diluted with water) and the resulting mixture was incubated at 22° C. for 1 h to convert the ATP not consumed in the kinase reaction completely […]. Subsequently 2.5 μL of the “kinase detection reagent” (1.2 fold more concentrated than recommended by the producer) were added, the resulting mixture was incubated at 22° C. for 1 h and then the luminescence measured with a suitable measurement instrument (e.g. Viewlux™ from Perkin-Elmer). The amount of emitted light was taken as a measure for the amount of ADP generated and thereby for the activity of the CSNK1A1.
as §2

Chain of human CSNK1D (P48730 whole entry): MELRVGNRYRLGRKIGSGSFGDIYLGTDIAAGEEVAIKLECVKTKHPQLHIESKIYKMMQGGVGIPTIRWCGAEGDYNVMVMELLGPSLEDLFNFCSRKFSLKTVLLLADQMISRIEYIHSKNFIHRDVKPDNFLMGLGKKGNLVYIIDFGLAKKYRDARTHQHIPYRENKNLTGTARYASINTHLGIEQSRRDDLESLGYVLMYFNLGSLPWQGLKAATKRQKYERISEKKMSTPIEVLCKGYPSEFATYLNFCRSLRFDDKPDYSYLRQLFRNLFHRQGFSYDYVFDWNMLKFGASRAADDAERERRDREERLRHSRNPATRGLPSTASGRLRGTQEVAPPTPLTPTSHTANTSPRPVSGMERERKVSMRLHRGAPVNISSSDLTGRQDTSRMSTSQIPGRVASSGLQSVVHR

Work on `Cn1cc(CC(F)(F)F)c2[nH]c(-c3ccnc(NC(=O)C(CC(F)F)c4ccc(F)cc4)c3)c(Nc3ccccc3)c2c1=O` (racemic) [Example 35, N-{4-[3-anilino-5-methyl-4-oxo-7-(2,2,2-trifluoroethyl)-4,5-dihydro-1H-pyrrolo[3,2-c]pyridin-2-yl]pyridin-2-yl}-4,4-difluoro-2-(4-fluorophenyl)butanamide] yielded an IC50 (human CSNK1D) of 5.9 nM and an IC50 (human CSNK1A1) of 8 nM.
